Measurements: paper PMC12488667, “Orodispersible films containing chestnut shell phenolics for buccal delivery: a preclinical approach for oral mucositis prevention” (Frontiers in Medical Technology, 2025)
“And” between values parts separate entries of the source, which are not always exact repeats. Identical values can stand only once. Like-named read-outs stand apart in the source and are kept apart here. Marks after values point to notes of the source that are not given here.

Legend:
[1] = Ex vivo permeation, Franz cells; assay type: in vitro ADME, porcine
Description: Porcine buccal mucosa was used to evaluate the buccal permeation of the phenolic compounds in the extract and the CS-loaded OFs (n = 9). The porcine buccal mucosa was purchased in a local butcher shop, not requiring ethical approval. A Franz cell assembly (9 mm clear jacketed Franz cell with a flat ground joint, 5 ml receptor volume, and permeation area of 0.785 cm^2; PermeGear, Inc., USA) was used. This experiment followed the methodology described by Rodrigues et al. ([32]). In the Franz apparatus, the porcine buccal mucosa was positioned with the cheek side facing the donor chamber, which contained 500 µl (1,000 μg/ml) of the CS extract or the CS-loaded OFs (two square films (2 × 2 cm) with […] of thickness were dissolved in 4 ml of artificial saliva; donor concentration was normalized to ensure equivalence between the extract solution and the film formulation). The receptor chamber was filled with 5 ml PBS, maintained at 37°C, and stirred continuously at 150 rpm. The volume was maintained through the experiments.
(§1) The identification and quantification of the phenolic compounds present in the extract and the OFs, as well as the compounds that permeated from the OFs through in vitro and ex vivo assays, were conducted using an LC-ESI-LTQ-Orbitrap-HRMS equipment with an Accela chromatograph (Thermo Scientific, Hemel Hempstead, UK), a photodiode array detector, a quaternary pump, and a temperature-controlled autosampler coupled to a high-resolution LTQ Orbitrap Velos mass spectrometer (Thermo Scientific, Hemel Hempstead, UK) with an ESI source in negative mode ([33], [34]). The system was controlled using the Xcalibur v3.0 software (ThermoFisher Scientific, Hemel Hempstead, UK). Elution was performed on an Acquity™ UPLC® BEH C18 Column (2.1 × 100 mm, i.d., 1.7 µm particle size, Waters Corporation, Wexford, Ireland) maintained at 30°C.
(§2) Gradient elution was performed with water (A) and acetonitrile (B), both with 0.1% formic acid, with a flow rate and injection volume of 450 µl/min and 5 µl, respectively. The solvent gradient (v/v) of B [t (min), %B] was set as follows: (0, 0), (2, 0), (4, 30), (8, 100), (10, 100), (11, 0), and (14, 0). The samples were analyzed in the full scan mode at a resolving power of 30,000 and m/z 600. Data-dependent MS/MS events were acquired at a resolution of 15,000. Most intense ions were detected via the FTMS mode-triggered data-dependent acquisition mode. Ions that were not sufficiently intense for a data-dependent scan were explored in MSn mode. Precursors were fragmented by collision-induced dissociation using a C-trap with a normalized collision energy (35 V) and an activation time of 10 ms. […] Compounds whose theoretical [M–H]^− values exceeded the MS¹ acquisition range (m/z 100–600) were annotated based on characteristic MSⁿ fragment ions detected within the scan window.
Quantitative analysis was performed by using a validated chromatographic method ([38]).

TR146 cells = experiment: In vitro permeation, buccal model; assay type: in vitro ADME, human
Description: The in vitro permeability of the bioactive compounds present in OFs (n = 9) was determined using a co-culture model composed of TR146 ([31]). The extract and the CS-loaded OFs were added to the apical side of the model as a stock solution. […] The Transepithelial Electrical Resistance (TEER) of the model was evaluated before, during, and at the end of the permeability assay using an EVOM Epithelial Volthometer equipped with a chopstick electrode (World Precision Instruments, Sarasota, FL, USA).
as §1, §2

| Structure (SMILES) | Quantification of permeated compounds ([1]; CS extract) | Quantification of permeated compounds ([1]; CS-loaded OFs) | Permeation (%) ([1]; from CS extract, 15 min) | Permeation (%) ([1]; from CS extract, 30 min) | Quantification of permeated compounds (TR146 cells; CS extract) | Quantification of permeated compounds (TR146 cells; CS-loaded OFs) | Permeation (%) (TR146 cells; from CS extract, 15 min) | Permeation (%) (TR146 cells; from CS extract, 30 min) | Permeation (%) (TR146 cells; from CS extract, 45 min) | Permeation (%) (TR146 cells; from CS extract, 60 min) | Permeation (%) (TR146 cells; from CS extract, 90 min) | Permeation (%) (TR146 cells; from CS extract, 120 min) | Permeation (%) (TR146 cells; from CS extract, 180 min) | Permeation (%) (TR146 cells; from CS extract, 240 min) | also measured |
| --- | --- | --- | --- | --- | --- | --- | --- | --- | --- | --- | --- | --- | --- | --- | --- |
| O=C(O)CCCCC(=O)O [Adipic acid] | 93.48 ± 2.39^b mg/ml | 11.84 ± 2.11^a mg/g film | 11.41 ± 0.03^a % | 9.47 ± 0.07^a % |  |  |  |  |  |  |  |  |  |  | Permeation (%) ([1]; from CS-loaded OFs, 15 min): 98.93 ± 2.05^b %; Permeation (%) ([1]; from CS-loaded OFs, 30 min): 97.59 ± 2.36^b % |
| O=c1oc2c(O)c(O)cc3c(=O)oc4c(O)c(O)cc1c4c23 [Ellagic acid] | 7.15 ± 2.50^b mg/ml | 1.27 ± 0.05^a mg/g film | 10.61 ± 0.08^a % | 6.26% and 6.26 ± 0.75^a % |  |  |  |  |  |  |  |  |  |  | Permeation (%) ([1]; from CS-loaded OFs, 15 min): 35.46 ± 0.32^b %; Permeation (%) ([1]; from CS-loaded OFs, 30 min): 60.75% and 60.75 ± 1.62^c % |
| Oc1cc(O)c2c(c1)O[C@H](c1ccc(O)c(O)c1)[C@H](O)C2 [Epicatechin] |  |  |  |  | 0.41 ± 0.03^a mg/ml | 0.36 ± 0.02^a mg/g film | 97.57 ± 1.07^a % | 96.86 ± 2.25^a % | 97.35 ± 1.74^a % | 98.05 ± 3.81^a % | 97.75 ± 5.73^a % | 97.73 ± 6.01^a % | 97.36 ± 2.57^a % | 96.86 ± 1.86^a % | Permeation (%) (TR146 cells; from CS extract, 240 min, listed as epicatechin): 96.86% |
| COc1cc(-c2oc3cc(O)cc(O)c3c(=O)c2O)ccc1O [Isorhamnetin] |  |  |  |  | 0.38 ± 0.04^a mg/ml | 0.38 ± 0.01^a mg/g film | 99.26 ± 2.34^a % | 99.73 ± 1.83^a % | 98.36 ± 3.74^a % | 99.10 ± 2.96^a % | 99.00 ± 4.70^a % | 98.36 ± 1.07^a % | 99.08 ± 2.69^a % | 98.36 ± 1.91^a % | Permeation (%) (TR146 cells; from CS extract, 240 min, listed as isorhamnetin): 98.36%; Permeation (%) (TR146 cells; from CS-loaded OFs, 15 min): 105.62 ± 3.71^a %; Permeation (%) (TR146 cells; from CS-loaded OFs, 30 min): 105.51 ± 3.25^a %; Permeation (%) (TR146 cells; from CS-loaded OFs, 45 min): 105.05 ± 2.24^a %; Permeation (%) (TR146 cells; from CS-loaded OFs, 60 min): 101.34 ± 2.95^a %; Permeation (%) (TR146 cells; from CS-loaded OFs, 90 min): 98.29 ± 2.14^a %; Permeation (%) (TR146 cells; from CS-loaded OFs, 120 min): 99.38 ± 1.47^a %; Permeation (%) (TR146 cells; from CS-loaded OFs, 180 min): 98.29 ± 1.94^a %; Permeation (%) (TR146 cells; from CS-loaded OFs, 240 min): 100.20 ± 3.56^a %; Permeation (%) (TR146 cells; from CS-loaded OFs, 240 min, listed as isorhamnetin): 100.20% |
| N[C@@H](Cc1ccccc1)C(=O)O [L-Phenylalanine] | 5.52 ± 0.24^b mg/ml | 0.42 ± 0.01^a mg/g film | 8.67 ± 0.03^a % | 8.57 ± 1.47^a % |  |  |  |  |  |  |  |  |  |  |  |
| N[C@@H](Cc1c[nH]c2ccccc12)C(=O)O [L-Tryptophan] | 4.18 ± 0.26^a mg/ml | 1.18 ± 0.09^a mg/g film | 37.21 ± 0.01^a % | 27.24 ± 0.23^a % |  |  |  |  |  |  |  |  |  |  |  |
| COC(=O)c1cc(O)c(O)c(O)c1 [Methyl gallate] |  |  |  |  | 0.37 ± 0.01^a mg/ml | 0.37 ± 0.03^a mg/g film | 37.24 ± 0.04^a % |  |  |  |  |  |  |  |  |
| O[C@H]1[C@H](O)[C@@H](O)[C@H](O)[C@@H](O)[C@H]1O [Myo-Inositol] |  |  |  |  | 0.54 ± 0.01^a mg/ml | 0.42 ± 0.01^a mg/g film | 39.51 ± 0.87^a^,^b % | 79.23 ± 1.43c % | 12.98 ± 0.01^a % | 33.80 ± 0.08^a^,^b % | 30.46 ± 0.05^a^,^b % | 41.34 ± 1.01^a^,^b % | 25.02 ± 0.09^a^,^b % | 56.50 ± 0.37^c % |  |
| O=C(CCc1ccc(O)cc1)c1c(O)cc(O)cc1O[C@@H]1O[C@H](CO)[C@@H](O)[C@H](O)[C@H]1O [Phlorizin] | 1.93± 0.06^a mg/ml | 0.87 ± 0.06^a mg/g film | 18.69 ± 0.04^a % | 17.60 ± 0.30^a % |  |  |  |  |  |  |  |  |  |  |  |
| O=C(O)CCCCCC(=O)O [Pimelic acid] | 26.17 ± 2.25^a mg/ml | 30.41 ± 0.01^a mg/g film | 65.10 ± 1.87^a % | 67.06 ± 2.58^a % |  |  |  |  |  |  |  |  |  |  | Permeation (%) ([1]; from CS-loaded OFs, 15 min): 76.61 ± 4.85^a % |
| O=C1CC[C@@H](C(=O)O)N1 [Pyroglutamic acid] |  |  |  |  | 41.32 ± 2.63^b mg/ml | 28.93 ± 1.88^a mg/g film | 13.92 ± 0.12^a % | 15.39 ± 1.05^a % | 18.22 ± 1.41^b % | 23.34 ± 0.88^b % | 22.87 ± 1.52^b % | 23.68 ± 1.84^b % | 21.35 ± 0.97^b % | 28.47 ± 2.52^b % | Permeation (%) (TR146 cells; from CS-loaded OFs, 15 min): 17.03 ± 0.23^a %; Permeation (%) (TR146 cells; from CS-loaded OFs, 30 min): 39.63 ± 0.24^a^,^b %; Permeation (%) (TR146 cells; from CS-loaded OFs, 45 min): 43.32 ± 1.12^a^,^b %; Permeation (%) (TR146 cells; from CS-loaded OFs, 60 min): 46.32 ± 2.65^a^,^b %; Permeation (%) (TR146 cells; from CS-loaded OFs, 90 min): 65.40 ± 0.82^b %; Permeation (%) (TR146 cells; from CS-loaded OFs, 120 min): 66.95 ± 3.71^b %; Permeation (%) (TR146 cells; from CS-loaded OFs, 180 min): 103.24 ± 2.71^c %; Permeation (%) (TR146 cells; from CS-loaded OFs, 240 min): 111.34% and 111.34 ± 1.62^c % |
| O=c1c(O[C@@H]2O[C@H](CO)[C@H](O)[C@H](O)[C@H]2O)c(-c2ccc(O)c(O)c2)oc2cc(O)cc(O)c12 [Quercetin 3-O-galactoside] |  |  |  |  | 0.36 ± 0.01^a mg/ml | 0.36 ± 0.01^a mg/g film |  |  |  | 49.94 ± 0.98^a % |  |  |  |  |  |
| COc1cc(C[C@@H](CO)[C@H](CO)Cc2ccc(O)c(OC)c2)ccc1O [Secoisolariciresinol] |  |  |  |  |  |  |  |  |  |  |  |  |  |  | Permeation (%) (TR146 cells): 22.32 ± 0.12^a % |
| COc1cc(C=O)ccc1O [Vanillin] |  |  |  |  | 0.70 ± 0.02^a mg/ml | 0.44 ± 0.05^a mg/g film | 8.10 ± 0.02^a % | 23.12 ± 0.56^b % | 28.35 ± 0.83^b % | 28.43 ± 0.41^b % | 42.18 ± 1.08^c % | 27.71 ± 0.72^a % | 53.91 ± 1.07^d % | 52.90 ± 0.73^d % |  |
